Reference: patent US20210009682A1, “REDUCING CUTANEOUS SCAR FORMATION AND TREATING SKIN CONDITIONS” (Northwestern University, priority 2013, published 2021)
“Also recorded” adds a separate entry of the source. Counter-ions that a name gives are not always drawn.

How the values were obtained:
[1] = system: dermal fibroblasts; test: Activation of dermal fibroblasts (α-SMA and pro-Col I expression) by HaCaT condition medium; type: cell-based, human; details: for activation of fibroblasts: PGE2 receptor blockade in condition medium from HaCaT with increased water loss
Protocol: FIGS. 3A-C. ENaC senses sodium concentration changes in keratinocytes and regulates downstream genes. Stratified HaCaT and fibroblast were co-cultured in transwell plates and subjected to increased water loss and control conditions for 16 hours. Expression of α-SMA and pro-Col I was detected in dermal fibroblasts (HDF) with their specific antibodies and visualized with fluorescence labeled secondary antibodies, Nuclei were stained with DAPI. (FIG. 3A, Panels A-D) Stratified HaCaT and fibroblasts in control condition. (FIG. 3A, Panels E-H) Stratified HaCaT and fibroblasts in increased water loss condition. (FIG. 3A, Panels I-L) Stratified ENaC knockdown HaCaT and fibroblasts in control condition. (FIG. 3A, Panels M-P) Stratified ENaC knockdown HaCaT and fibroblasts in increased water loss condition. (FIGS. 3B-C) The quantification of expression levels of α-SMA and pro-Col I by ImageJ. The scale bar represents 100 μm. *p<0.05, **p<0.01.
FIGS. 4A-C. Show results from Example 1 where it was determine that PGE2 is important for the activation of fibroblasts by keratinocytes. As described in Example 1, condition medium of stratified wild type (or ENaC knockdown) HaCaT culture under increased water loss was collected and supplemented to fibroblasts for 24 hours. Expression of α-SMA and pro-collagen I in dermal fibroblasts was tested as described in
FIG. 3. (FIG. 4A, Panels A-D) Wild type HaCaT condition medium (CM). (FIG. 4A, Panels E-H) ENaC-knockdown HaCaT condition medium. (FIG. 4A, Panels I-L) ENaC-knockdown HaCaT condition medium plus 10 μM of PGE2. (FIGS. 4B-C) Quantification of expression levels of α-SMA (FIG. 4B) and pro-Col I (FIG. 4C) was performed by ImageJ. The scale bar represents 100 μm. **p<0.01.
Since the PGE2 is a downstream product of COX-2 and found to be involved in regulation of fibroblast cytoskeletal dynamics during airway epithelium injury (37), it was hypothesized that PGE2 signaling is important for keratinocyte-fibroblast signaling. […]

[2] = system: rabbit ear hypertrophic scar; test: Hypertrophic scar model in the rabbit ear (scar elevation index); type: in vivo; details: for scar elevation index (SEI): topical, harvested POD28
Protocol: As described in Example 1, full thickness 7 mm excision wounds were made on the ventral side of the rabbit ears at PODO. Amiloride (an ENaC inhibitor) or Celecoxib (a COX-2 inhibitor) was applied to the wounds every other day for a total of three times starting at POD14. Wounds harvested at POD28 and histological analysis was performed. (A-D) Representative pictures of wound histology at POD28. Rabbit ear wounds with Amiloride treatment (B) and control (A) and with Celecoxib treatment (D) and its control (C) are shown. (E) The scar elevation index (SEI) was calculated and used to evaluate the scar formation. (F. G) SEI. Twelve wounds for each dose of treatment and 12 controls were used for the analysis. *P<0.05. Scar bar stands for 1000 μm. **p<0.01. […] The present invention is not limited by such a mechanism and an understanding of the mechanism is not necessary to practice the present invention.
Sustained activation of dermal fibroblasts with accumulation of collagen is the main cause of hypertrophic scars (38, 39). […] The role of the ENaC-COX-2 pathway was investigated in vivo utilizing a well validated hypertrophic scar model in the rabbit ear (31, 40-43). Amiloride, an ENaC antagonist, was topically applied to the rabbit ear wounds after re-epithelialization was complete. Control scars, located on the contralateral ear, were treated with vehicle alone. In this model, absence of scar elevation gives a scar elevation index (SEI) of 1.0, and control wounds heal with an elevated scar (SEI >1). […] This reduction in scarring exceeds other therapies in validated model of hypertrophic scarring (14, 44, 45). In an identically designed experiment, Celecoxib, a COX-2 inhibitor, was applied on rabbit ear wounds to evaluate its effect on formation of hypertrophic scars. Similarly, treatment of 2 mg/wound of Celecoxib on rabbit ear wounds reduced the hypertrophy of the scar from 1.53±0.10 to 1.23±0.07 (FIG. 5C, D, and G).

[3] = system: COX-2; test: COX-2 mRNA expression by RT-qPCR in human foreskin keratinocytes (HK) culture; type: cell-based; details: HKs with calcium channel blocked
Protocol: FIGS. 2A-F. Regulation of COX-2 and PGE2 by sodium flux is mediated by ENaC. FIGS. A and B show mRNA expression analysis of COX-2 as described in Example 1. (A) COX-2 mRNA expression in HESCs. HESCs were cultured with increased water loss condition for 4 or 16 hours (n=4). Total RNAs were isolated and RT-qPCR was performed. Gene expression was normalized according to the expression level of GAPDH. The level of COX-2 expression in HESCs treated with increased water loss was compared to that in control cells, which was set at 100% as expression level. (B) COX-2 mRNA expression keratinocytes culture. Stratified wild type or ENaC-knockdown HaCaT cells were cultured with increased water loss or sodium concentration condition for 16 hours (n=4). (C) PGE2 protein expression. Monolayer wild type or ENaC-knockdown HaCaT cells were cultured with increased sodium concentration condition for 16 hours (n=4). The amount of PGE2 in culture medium was measured by ELISA. (D) Western blot analysis (n=4). […] After 10, 30, 60, 240 minutes treatment, samples were harvested and western blot was performed with antibodies against phosphorylated-Akt, and Akt. β-actin was detected as a loading control. […] Cox-2 mRNA (E) and PGE2 (F) protein expression were analyzed by RT-qPCR and ELISA. *p<0.05, **p<0.01. […]

[4] = system: stratified keratinocytes (HaCaT); test: Sodium flux by scanning ion-selective electrode technique (SIET) in stratified keratinocyte culture with increased water loss; type: cell-based, human; parameters: dose or concentration left out as unconfirmed; details: amiloride
Protocol: As described in Example 1, HESCs or stratified keratinocytes (HaCaT) were cultured for 16 hours in the indicated conditions and ion fluxes were measured immediately after the samples were submerged in the bathing buffer. Sodium flux in HESCs culture with increased water loss (A) or increased media sodium concentration (10% more than control) (B). Sodium flux in stratified keratinocytes culture with increased water loss (C) or sodium concentration (D). Calcium (E) or chloride (F) flux in stratified keratinocytes culture with increased water loss. (G) Sodium flux in amiloride treated stratified keratinocytes culture with increased water loss. […] Background readings were obtained more than 1000 μm away from the sample. *p<0.05, **p<0.01.
Increased trans-epidermal water loss results in higher sodium flux. To estimate the change of sodium flux of skin, the sodium flux was measured in human ex vivo skin culture (HESC), which retains important elements of in vivo skin and recapitulates the features of human wound repair (25, 26). […] To validate increased TEWL, expression levels of aquaporin 3 (AQP3) were measured, which has been reported as a molecular marker to indicate the hydration conditions of skin (27, 28). […]
Changes in sodium flux were evaluated using a scanning ion-selective electrode technique (SIET). […]

[5] = system: IL-8; test: Expression of IL-8 in keratinocytes incubated with trypsin; type: cell-based, human; details: for up-regulation of IL-8: high concentration of sodium stimulation
Source text: (§1) FIGS. 9A-I. Prss8 is an important protein downstream of Nax. […] As a primary function, Prss8 can activate ENaC by cleaving its a subunit. The cleaved and non-cleaved bands can be visualized by an ENaC specific protein with western blotting (H). […] However, the cleavage of the ENaC a subunit was enhance by trypsin in Nax knockdown keratinocytes (H and I). FIG. 10. The keratinocytes differentiation with or without knockdown of Nax. Keratinocytes can be differentiated in differentiation medium to form a multiple cell layer structure like skin epidermis (Panel A). […] Knockdown of Nax inhibited the keratinocyte differentiation (Panel B) with the absence of K10 marker in the cell (Panel E). […] The expression of differentiation markers are similar to the differentiated wild type keratinocytes.
(§2) To further confirm the pathway of Nax-Prss8-ENaC, a Prss8 homolog, trypsin was used to activate the ENaC with the knockdown of Nax.

[6] = system: ENaC a subunit; test: Cleavage of the ENaC α subunit by western blotting in keratinocytes; type: cell-based, human; details: Nax knockdown keratinocytes
Source text: as §1

[7] = system: IL-1β; test: Expression of IL-1β in keratinocytes incubated with trypsin; type: cell-based, human; details: for up-regulation of IL-1β: high concentration of sodium stimulation
Source text: as §1, §2

[8] = system: COX-2; test: Expression of COX-2 in keratinocytes incubated with trypsin; type: cell-based, human; details: for up-regulation of COX-2: high concentration of sodium stimulation
[9] = system: keratinocytes; test: Keratinocyte differentiation in differentiation medium (K14/K10 markers); type: cell-based, human; details: Nax knockdown keratinocytes, daily incubation with differentiation medium containing 10 ug/ml trypsin
Source text: as §1, §2

[10] = wild type keratinocytes, 10 μg/ml trypsin

Compound: CCCCC[C@H](O)/C=C/[C@H]1[C@H](O)CC(=O)[C@@H]1C/C=C\CCCC(=O)O [PGE2, prostaglandin E2]
- activation of fibroblasts (α-SMA and pro-Col I) ([1]; 10 μM PGE2 added to ENaC knockdown HaCaT culture conditioned medium, 24 hours): successfully rescued

Compound: CCCCCC(O)CCC1CCC(=O)N1CCCCCCC(=O)O (centres unmarked) [CAY10580]
- activation of fibroblasts [1]: reduced activation of fibroblasts to control levels

Compound: Cc1ccc(-c2cc(C(F)(F)F)nn2-c2ccc(S(N)(=O)=O)cc2)cc1 [Celecoxib]
- scar elevation index (SEI) ([2]; rabbit ear wounds, 2 mg/wound): 1.23±0.07

Compound: COC(=O)C1=C(C)NC(C)=C(C(=O)OC2CCCN(Cc3ccccc3)C2)C1c1cccc([N+](=O)[O-])c1 (centres unmarked) [benidipine hydrochloride]
- increased expression levels of COX-2 during increased water loss or sodium concentration [3]: not abolished

Compound: N=C(N)NC(=O)c1nc(Cl)c(N)nc1N [amiloride]
- enhanced sodium flux due to increased water loss [4]: completely abolished
- scar formation / hypertrophy of rabbit ear scar (in words) ([2]; rabbit ear scar treatment, 28 days post wounding): clearly showed the improvement of the scar formation
- reduction of scar formation compared to control wound healing groups ([2]; rabbit ear wounds, lower concentrations): did not show significant reduction
- scar elevation index (SEI) ([2]; rabbit ear wounds, 0.5 mg/wound): 1.06±0.05

Compound: CC(C)Oc1ccc2c(=O)c3cc(C(=O)O)ccc3oc2c1 [AH6809]
- activation of fibroblasts [1]: reduced activation of fibroblasts to control levels

Compound: trypsin
- up-regulation of IL-8 ([5]; ENaC knockdown keratinocytes): recovered the up-regulation
- up-regulation of IL-8 ([5]; Nax knockdown keratinocytes): recovered the up-regulation; also recorded: up-regulated
- expression of IL-8 [5, 10]: significantly increased
- cleavage of the ENaC a subunit [6]: enhance
- up-regulation of IL-1β ([7]; ENaC knockdown keratinocytes): recovered the up-regulation
- up-regulation of IL-1β ([7]; Nax knockdown keratinocytes): recovered the up-regulation; also recorded: up-regulated
- expression of IL-1β [7, 10]: significantly increased
- up-regulation of COX-2 ([8]; ENaC knockdown keratinocytes): but not in ENaC knockdown cells
- up-regulation of COX-2 ([8]; Nax knockdown keratinocytes): recovered the up-regulation; also recorded: up-regulated
- expression of COX-2 [8, 10]: significantly increased
- differentiation of keratinocytes [9]: re-established the differentiation; also recorded: successfully recovered the differentiation
